In one data set the target is Acetylcholinesterase (Electrophorus electricus, UniProt O42275). The data set is described as follows: Inhibition of electric eel AChE preincubated for 15 mins followed by addition of acetylcholine iodide as substrate by Ellman's assay. In general terms: DTNB colorimetry detects thiols as they appear.
A short description of data set [1]: Antioxidant activity assessed as DPPH radical scavenging activity after 30 mins. Type of data set: physicochemical. (In general: DPPH is a stable violet radical that fades when it is reduced.)
In data set [2] the test system is SH-SY5Y. The data set is described as follows: Cytotoxicity against human SH-SY5Y cells assessed as cell viability at 1.5 to 5 uM after 25 hrs by MTT assay. Type of data set: cell-based. (In general: Formazan colour is commonly taken as a measure of viable cells.)
The nature of data set [3]: Antioxidant activity assessed as DPPH radical scavenging activity at 1 mM after 30 mins. The settings on record: 0.5 h, 1000 µM. The data set is classed as physicochemical.
The test system of data set [4] is SH-SY5Y. The data set can be described thus: Cytotoxicity against human SH-SY5Y cells assessed as cell viability at 2.5 uM after 25 hrs by MTT assay relative to control. The data set is classed as cell-based.
The subject of data set [5] is SH-SY5Y. The data set can be described thus: Cytotoxicity against human SH-SY5Y cells assessed as cell viability at 1.5 uM after 25 hrs by MTT assay relative to control. The data set is classed as cell-based.
The target of data set [6] is Amyloid-beta precursor protein (Homo sapiens) (UniProt P05067). The data set can be described thus: Inhibition of Amyloid beta (1 to 42) (unknown origin) self-induced aggregation at 80 uM for 24 hrs by Thioflavin T-based fluorometric assay.
Chain of Amyloid-beta precursor protein (Homo sapiens) (P05067 whole entry): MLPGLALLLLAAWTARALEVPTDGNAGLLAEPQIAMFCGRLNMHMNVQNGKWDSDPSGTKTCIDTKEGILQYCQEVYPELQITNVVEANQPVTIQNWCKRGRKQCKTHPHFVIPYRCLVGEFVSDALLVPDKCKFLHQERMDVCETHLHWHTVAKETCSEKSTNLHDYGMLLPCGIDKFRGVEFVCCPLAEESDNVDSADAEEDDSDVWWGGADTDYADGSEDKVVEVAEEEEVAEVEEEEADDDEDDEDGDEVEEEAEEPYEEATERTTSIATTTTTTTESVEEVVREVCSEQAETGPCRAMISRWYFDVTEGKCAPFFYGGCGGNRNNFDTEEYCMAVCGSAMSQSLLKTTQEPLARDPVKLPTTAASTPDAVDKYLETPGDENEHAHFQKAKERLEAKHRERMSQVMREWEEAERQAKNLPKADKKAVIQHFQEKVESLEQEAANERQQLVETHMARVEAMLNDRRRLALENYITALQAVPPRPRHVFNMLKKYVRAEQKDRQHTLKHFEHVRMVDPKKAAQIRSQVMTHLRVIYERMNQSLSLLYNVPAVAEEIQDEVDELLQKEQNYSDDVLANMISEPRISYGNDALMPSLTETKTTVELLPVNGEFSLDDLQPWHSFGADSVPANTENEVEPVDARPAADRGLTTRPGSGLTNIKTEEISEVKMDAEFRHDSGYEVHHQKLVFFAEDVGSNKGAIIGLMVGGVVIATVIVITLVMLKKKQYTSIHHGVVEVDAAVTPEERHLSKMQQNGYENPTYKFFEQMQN
Data set [7] is described as follows: Cytotoxicity against ovarian cancer cells (unknown origin). Type of data set: cell-based. Particulars: Cancer cell lines.
In data set [8] the test system is SH-SY5Y. The data set can be described thus: Neuroprotective activity against human SH-SY5Y cells assessed as reduction of Amyloid beta 42-induced cytotoxicity at 2.5 uM preincubated with compound for 1 hr followed by Amyloid beta 42 peptide addition for 24 hrs by MTT reduction assay. Type of data set: functional, cell-based.
Data set [9] deals with SH-SY5Y. The data set can be described thus: Neuroprotective activity against human SH-SY5Y cells assessed as reduction of H2O2-induced oxidative stress at 2.5 uM preincubated with compound for 1 hr followed by H2O2 addition for 24 hrs by MTT reduction assay. Type of data set: functional, cell-based.
Data set [10] deals with SH-SY5Y. The data set is described as follows: Neuroprotective activity against human SH-SY5Y cells assessed as reduction of H2O2-induced oxidative stress at 5 uM preincubated with compound for 1 hr followed by H2O2 addition for 24 hrs by MTT reduction assay. Type of data set: functional, cell-based.

As a reminder, the IC50 is the concentration at which inhibition is half-maximal. Lower therefore signals greater potency in that assay. The term EC50 denotes the concentration giving half of the maximal effect. Usually inhibition stands for the change of the read-out against control, counted positive when it falls. Read a high inhibition as a strong effect.

Calls of active or inactive are those of the source. No cut-off for these calls is given here.

Chain of Acetylcholinesterase (O42275 whole entry): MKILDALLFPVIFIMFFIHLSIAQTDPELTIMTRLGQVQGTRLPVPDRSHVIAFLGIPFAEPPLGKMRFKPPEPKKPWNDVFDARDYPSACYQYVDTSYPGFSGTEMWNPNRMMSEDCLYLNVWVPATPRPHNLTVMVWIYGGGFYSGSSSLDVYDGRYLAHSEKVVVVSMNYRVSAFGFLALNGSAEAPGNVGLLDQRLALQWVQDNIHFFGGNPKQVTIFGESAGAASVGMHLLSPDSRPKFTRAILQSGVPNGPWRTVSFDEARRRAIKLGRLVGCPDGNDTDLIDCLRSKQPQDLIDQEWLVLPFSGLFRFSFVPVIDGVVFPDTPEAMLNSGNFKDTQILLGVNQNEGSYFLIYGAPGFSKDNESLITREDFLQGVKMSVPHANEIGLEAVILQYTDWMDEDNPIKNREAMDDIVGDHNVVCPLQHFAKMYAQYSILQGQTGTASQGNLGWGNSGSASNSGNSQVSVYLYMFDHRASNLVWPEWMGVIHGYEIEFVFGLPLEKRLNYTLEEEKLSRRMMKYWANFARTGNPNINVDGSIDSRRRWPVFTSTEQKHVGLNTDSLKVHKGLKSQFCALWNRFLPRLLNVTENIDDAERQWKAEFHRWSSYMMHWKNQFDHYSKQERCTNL

The molecule `O=C(/C=C/C=C/c1ccc(O)c(O)c1)NCCCNc1c2c(nc3ccccc13)CCCC2` had an IC50 on Acetylcholinesterase of 480 nM. Also, the EC50 in [1] was 9100 nM. Besides, the Activity result with SH-SY5Y [2] was “Non-toxic”.

The molecule `O=C(/C=C/c1ccc2c(c1)OCO2)NCCCCNc1c2c(nc3ccccc13)CCCC2` yielded an IC50 against Acetylcholinesterase of 730 nM. For the same molecule, the Activity in [3] was 18.6%; with SH-SY5Y [2] it was “Toxic”.

For the molecule `O=C(/C=C/c1ccccc1)NCCNc1c2c(nc3ccccc13)CCCC2`, at Acetylcholinesterase, the IC50 came to 770 nM. Also, the Activity is reported as 7.9% in data set [3] and “Toxic” with SH-SY5Y [2].

`O=C(/C=C/c1ccccc1)NCCCNc1c2c(nc3ccccc13)CCCC2` had an IC50 at Acetylcholinesterase of 380 nM. The Activity in data set [3] is recorded as 16.3%; in the data set with SH-SY5Y [2], “Toxic”; in the data set with SH-SY5Y [4] it was “Toxic”.

With `O=C(/C=C/C=C/c1ccccc1)NCCNc1c2c(nc3ccccc13)CCCC2`, on Acetylcholinesterase, the midpoint of inhibition, the IC50, lay at 320 nM. The Activity in [3] is 15.6%; in the data set on SH-SY5Y [2], “Toxic”; in the data set on SH-SY5Y [5], “Toxic”.

Consider `O=C(/C=C/c1ccc2c(c1)OCO2)NCCNc1c2c(nc3ccccc13)CCCC2`, for which half-maximal inhibition at Acetylcholinesterase (IC50) required 180 nM. Also, the Activity in data set [3] was 12.2%; with SH-SY5Y [2] it was “Toxic”. The molecule further displayed an inhibition in data set [6] of 30.9%.

As to `O=C(/C=C/c1ccc2c(c1)OCO2)NCCCNc1c2c(nc3ccccc13)CCCC2`, the IC50 was 130 nM on Acetylcholinesterase and 5820 nM in data set [7]. For the same molecule, the Activity in data set [3] is 15.4%; in the data set with SH-SY5Y [2], “Toxic”. In data set [6], this molecule yielded an inhibition of 8.27%.

Regarding `COc1ccc(/C=C/C(=O)NCCNc2c3c(nc4ccccc24)CCCC3)cc1OC`, the values for the IC50 (against Acetylcholinesterase; in [7]) were 90 nM and 10400 nM, respectively. In addition, in [3], the Activity came out at 8.8%. In data set [6], the inhibition worked out at 19.6%. The result with SH-SY5Y [8] and in the data set with SH-SY5Y [9] was Active.

`O=C(/C=C/C=C/c1ccccc1)NCCCNc1c2c(nc3ccccc13)CCCC2` came in with an IC50 at Acetylcholinesterase of 290 nM. Moreover, the Activity in data set [3] is listed as 16.9%; in the data set with SH-SY5Y [2], “Toxic”.

With `O=C(/C=C/C=C/c1ccc2c(c1)OCO2)NCCCNc1c2c(nc3ccccc13)CCCC2`, the values for the IC50 (at Acetylcholinesterase; in data set [7]) were 130 nM and 2500 nM, respectively. The Activity in data set [3] was 20.8%; in the data set on SH-SY5Y [2], “Toxic”. In data set [6], this molecule registered an inhibition of 72.2%.

On Acetylcholinesterase, `O=C(/C=C/c1ccc(O)c(O)c1)NCCCNc1c2c(nc3ccccc13)CCCC2` returned an IC50 of 980 nM. Also, the EC50 in [1] is 11300 nM. Further, the Activity entry in the data set on SH-SY5Y [2] is “Toxic”. The outcome with SH-SY5Y [10] was Active.

For the molecule `O=C(/C=C/c1ccc(O)c(O)c1)NCCNc1c2c(nc3ccccc13)CCCC2`, the IC50 at Acetylcholinesterase is 840 nM. Also, the EC50 in data set [1] was found to be 12300 nM. Also, the Activity entry in the data set with SH-SY5Y [2] is on record as “Toxic”.

On to `O=C(/C=C/C=C/c1ccccc1)NCCCCNc1c2c(nc3ccccc13)CCCC2`, for which, on Acetylcholinesterase, the IC50 stood at 620 nM. For the same molecule, the results for the Activity (in data set [3]; in the data set on SH-SY5Y [5]) were 23% and “Toxic”, respectively.

On to `COc1ccc(/C=C/C(=O)NCCCCNc2c3c(nc4ccccc24)CCCC3)cc1OC`, for which inhibition on Acetylcholinesterase was half-maximal at 390 nM (IC50). Also, the Activity in data set [3] came to 16.1%.

For the molecule `O=C(/C=C/C=C/c1ccc2c(c1)OCO2)NCCNc1c2c(nc3ccccc13)CCCC2`, the IC50 at Acetylcholinesterase was 300 nM. Moreover, the Activity is 26.2% in data set [3], “Toxic” in the data set on SH-SY5Y [2] and “Toxic” in the data set with SH-SY5Y [5].

Regarding `O=C(/C=C/C=C/c1ccc(O)c(O)c1)NCCNc1c2c(nc3ccccc13)CCCC2`, it took 1090 nM to reach half-maximal inhibition against Acetylcholinesterase (IC50). Besides, the EC50 in data set [1] was found to be 9500 nM. The Activity entry in the data set with SH-SY5Y [2] was “Non-toxic”. In the data set on SH-SY5Y [10], the outcome was Active.

On to `COc1ccc(/C=C/C(=O)NCCCNc2c3c(nc4ccccc24)CCCC3)cc1OC`, for which the figures for the IC50 (on Acetylcholinesterase; in data set [7]) were 90 nM and 19500 nM, respectively. Moreover, in data set [3], the Activity stood at 16.8%. Besides, the inhibition in data set [6] is 56.5%. In the data set on SH-SY5Y [9], the result was Active.

The molecule `O=C(/C=C/c1ccccc1)NCCCCNc1c2c(nc3ccccc13)CCCC2` returned an IC50 against Acetylcholinesterase of 850 nM. For the same molecule, the Activity in [3] was 22.5%. Further, the outcome in the data set on SH-SY5Y [8] was Active.

These data come from ChEMBL document CHEMBL3769323, “Design, synthesis and bioevaluation of tacrine hybrids with cinnamate and cinnamylidene acetate derivatives as potential anti-Alzheimer drugs” (Medchemcomm, 2015).
